Columns and labels:
Bacteroides fragilis [1] = assay: Antimicrobial activity against carbapenemase-producing Bacteroides fragilis GAI 30144 by agar dilution method in presence of 5% laked sheep blood; assay type: functional
[2] = Antimicrobial activity against Parabacteroides distasonis ATCC 8503 by agar dilution method in presence of 5% laked sheep blood; assay type: functional
[3] = tested on: Campylobacter ureolyticus; assay: Antimicrobial activity against Bacteroides ureolyticus NCTC 10941 by agar dilution method in presence of 5% laked sheep blood; assay type: functional
Prevotella corporis = assay: Antimicrobial activity against Prevotella corporis GAI 91000 by agar dilution method in presence of 5% laked sheep blood; assay type: functional
[4] = tested on: Bacteroides heparinolyticus; assay: Antimicrobial activity against Prevotella heparinolytica ATCC 35895 by agar dilution method in presence of 5% laked sheep blood; assay type: functional
Prevotella intermedia = assay: Antimicrobial activity against Prevotella intermedia ATCC 25611 by agar dilution method in presence of 5% laked sheep blood; assay type: functional
[5] = tested on: Prevotella melaninogenica; assay: Antimicrobial activity against Prevotella melaninogenica JCM 6325 by agar dilution method in presence of 5% laked sheep blood; assay type: functional; conditions: ATCC 25845
Prevotella denticola = assay: Antimicrobial activity against Prevotella denticola GAI 5490 by agar dilution method in presence of 5% laked sheep blood; assay type: functional
Hoylesella oralis = assay: Antimicrobial activity against Prevotella oralis ATCC 33269 by agar dilution method in presence of 5% laked sheep blood; assay type: functional
Fusobacterium nucleatum [6] = assay: Antimicrobial activity against Fusobacterium nucleatum ATCC 25586 by agar dilution method in presence of 5% laked sheep blood; assay type: functional
Fusobacterium varium [7] = assay: Antimicrobial activity against Fusobacterium varium ATCC 8501 by agar dilution method in presence of 5% laked sheep blood; assay type: functional
Bilophila wadsworthia = assay: Antimicrobial activity against Bilophila wadsworthia WAL 7959 by agar dilution method in presence of 5% laked sheep blood; assay type: functional
[8] = tested on: Desulfovibrio desulfuricans; assay: Antimicrobial activity against Desulfovibrio desulfuricans ATCC 29577 by agar dilution method in presence of 5% laked sheep blood; assay type: functional
[9] = Antimicrobial activity against Desulfovibrio piger DSM 749 by agar dilution method in presence of 5% laked sheep blood; assay type: functional, Desulfovibrio piger ATCC 29098
Bacteroides fragilis [10] = assay: Antimicrobial activity against Bacteroides fragilis by agar dilution method in presence of 5% laked sheep blood; assay type: functional
[11] = tested on: Bacteroides thetaiotaomicron; assay: Antimicrobial activity against Bacteroides thetaiotaomicron by agar dilution method in presence of 5% laked sheep blood; assay type: functional
[12] = tested on: Parabacteroides distasonis; assay: Antimicrobial activity against Parabacteroides distasonis by agar dilution method in presence of 5% laked sheep blood; assay type: functional
Bacteroides uniformis = assay: Antimicrobial activity against Bacteroides uniformis by agar dilution method in presence of 5% laked sheep blood; assay type: functional
Phocaeicola vulgatus = assay: Antimicrobial activity against Bacteroides vulgatus by agar dilution method in presence of 5% laked sheep blood; assay type: functional
Bacteroides stercoris = assay: Antimicrobial activity against Bacteroides stercoris by agar dilution method in presence of 5% laked sheep blood; assay type: functional
Odoribacter splanchnicus = assay: Antimicrobial activity against Odoribacter splanchnicus by agar dilution method in presence of 5% laked sheep blood; assay type: functional
Prevotella sp. = assay: Antimicrobial activity against Prevotella sp. by agar dilution method in presence of 5% laked sheep blood; assay type: functional
[13] = tested on: Prevotella melaninogenica; assay: Antimicrobial activity against Prevotella melaninogenica by agar dilution method in presence of 5% laked sheep blood; assay type: functional
Fusobacterium nucleatum [14] = assay: Antimicrobial activity against Fusobacterium nucleatum by agar dilution method in presence of 5% laked sheep blood; assay type: functional
Fusobacterium varium [15] = assay: Antimicrobial activity against Fusobacterium varium by agar dilution method in presence of 5% laked sheep blood; assay type: functional
Fusobacterium mortiferum = assay: Antimicrobial activity against Fusobacterium mortiferum by agar dilution method in presence of 5% laked sheep blood; assay type: functional
Fusobacterium sp. = assay: Antimicrobial activity against Fusobacterium sp. by agar dilution method in presence of 5% laked sheep blood; assay type: functional
Finegoldia magna = assay: Antimicrobial activity against Finegoldia magna by agar dilution method in presence of 5% laked sheep blood; assay type: functional
Parvimonas micra = assay: Antimicrobial activity against Parvimonas micra by agar dilution method in presence of 5% laked sheep blood; assay type: functional
[16] = tested on: Peptostreptococcus anaerobius; assay: Antimicrobial activity against Peptostreptococcus anaerobius by agar dilution method in presence of 5% laked sheep blood; assay type: functional
[17] = tested on: Peptoniphilus asaccharolyticus; assay: Antimicrobial activity against Peptoniphilus asaccharolyticus by agar dilution method in presence of 5% laked sheep blood; assay type: functional
Eggerthella lenta = assay: Antimicrobial activity against Eggerthella lenta by agar dilution method in presence of 5% laked sheep blood; assay type: functional
Eubacterium limosum = assay: Antimicrobial activity against Eubacterium limosum by agar dilution method in presence of 5% laked sheep blood; assay type: functional
Clostridioides difficile = assay: Antimicrobial activity against Clostridium difficile by agar dilution method in presence of 5% laked sheep blood; assay type: functional
Clostridium perfringens [18] = assay: Antimicrobial activity against Clostridium perfringens by agar dilution method in presence of 5% laked sheep blood; assay type: functional
[19] = tested on: Peptostreptococcus anaerobius; assay: Antimicrobial activity against Peptostreptococcus anaerobius ATCC 27337 by agar dilution method in presence of 5% laked sheep blood; assay type: functional
Clostridium perfringens [20] = assay: Antimicrobial activity against Clostridium perfringens ATCC 13124 by agar dilution method in presence of 5% laked sheep blood; assay type: functional
Clostridium septicum = assay: Antimicrobial activity against Clostridium septicum ATCC 12464 by agar dilution method in presence of 5% laked sheep blood; assay type: functional
Cutibacterium acnes = assay: Antimicrobial activity against Propionibacterium acnes ATCC 11828 by agar dilution method in presence of 5% laked sheep blood; assay type: functional
[21] = tested on: Propionibacterium granulosum; assay: Antimicrobial activity against Propionibacterium granulosum ATCC 25564 by agar dilution method in presence of 5% laked sheep blood; assay type: functional; conditions: Cutibacterium granulosum
[22] = tested on: Lactobacillus acidophilus; assay: Antimicrobial activity against Lactobacillus acidophilus JCM 1132 by agar dilution method in presence of 5% laked sheep blood; assay type: functional
Lacticaseibacillus casei = assay: Antimicrobial activity against Lactobacillus casei subsp. casei JCM 1134 by agar dilution method in presence of 5% laked sheep blood; assay type: functional
Bacteroides fragilis [23] = assay: Antimicrobial activity against Bacteroides fragilis ATCC 25285 by agar dilution method in presence of 5% laked sheep blood; assay type: functional; conditions: NCTC 9343
Bacteroides fragilis [24] = assay: Antimicrobial activity against Bacteroides fragilis NCTC 10581 by agar dilution method in presence of 5% laked sheep blood; assay type: functional
Bacteroides fragilis [25] = assay: Antimicrobial activity against Bacteroides fragilis GAI 7955 by agar dilution method in presence of 5% laked sheep blood; assay type: functional

SMILES: C[C@@H](O)[C@H]1C(=O)N2C(C(=O)O)=C(S[C@@H]3CN[C@H](C(=O)N(C)C)C3)[C@H](C)[C@H]12 [MEROPENEM]
- MIC (Bacteroides fragilis [1]): > 128 µg/mL
- MIC [2]: 0.125 µg/mL
- MIC [3]: ≤ 0.015 µg/mL
- MIC (Prevotella corporis): 0.03 µg/mL
- MIC [4]: 0.06 µg/mL
- MIC (Prevotella intermedia): 0.06 µg/mL
- MIC [5]: 0.125 µg/mL
- MIC (Prevotella denticola): 0.06 µg/mL
- MIC (Hoylesella oralis): 0.03 µg/mL
- MIC (Fusobacterium nucleatum [6]): 8 µg/mL
- MIC (Fusobacterium varium [7]): 0.25 µg/mL
- MIC (Bilophila wadsworthia): 0.03 µg/mL
- MIC [8]: 0.125 µg/mL
- MIC [9]: 0.03 µg/mL
- MIC50 (Bacteroides fragilis [10]): 0.25 µg/mL
- MIC90 (Bacteroides fragilis [10]): 0.5 µg/mL
- MIC50 [11]: 0.5 µg/mL
- MIC90 [11]: 2 µg/mL
- MIC50 [12]: 0.25 µg/mL
- MIC90 [12]: 4 µg/mL
- MIC50 (Bacteroides uniformis): 0.25 µg/mL
- MIC90 (Bacteroides uniformis): 4 µg/mL
- MIC50 (Phocaeicola vulgatus): 0.25 µg/mL
- MIC90 (Phocaeicola vulgatus): 4 µg/mL
- MIC50 (Bacteroides stercoris): 0.25 µg/mL
- MIC90 (Bacteroides stercoris): 4 µg/mL
- MIC50 (Odoribacter splanchnicus): 0.25 µg/mL
- MIC90 (Odoribacter splanchnicus): 4 µg/mL
- MIC50 (Prevotella sp.): 0.125 µg/mL
- MIC90 (Prevotella sp.): 0.25 µg/mL
- MIC50 [13]: 0.125 µg/mL
- MIC90 [13]: 0.25 µg/mL
- MIC50 (Fusobacterium nucleatum [14]): 0.03 µg/mL
- MIC90 (Fusobacterium nucleatum [14]): 0.125 µg/mL
- MIC50 (Fusobacterium varium [15]): 0.03 µg/mL
- MIC90 (Fusobacterium varium [15]): 0.125 µg/mL
- MIC50 (Fusobacterium mortiferum): 0.03 µg/mL
- MIC90 (Fusobacterium mortiferum): 0.125 µg/mL
- MIC50 (Fusobacterium sp.): 0.03 µg/mL
- MIC90 (Fusobacterium sp.): 0.125 µg/mL
- MIC50 (Finegoldia magna): 0.125 µg/mL
- MIC90 (Finegoldia magna): 0.125 µg/mL
- MIC50 (Parvimonas micra): 0.06 µg/mL
- MIC90 (Parvimonas micra): 0.125 µg/mL
- MIC50 [16]: 0.25 µg/mL
- MIC90 [16]: 2 µg/mL
- MIC50 [17]: ≤ 0.015 µg/mL
- MIC90 [17]: 0.125 µg/mL
- MIC50 (Eggerthella lenta): 0.5 µg/mL
- MIC90 (Eggerthella lenta): 1 µg/mL
- MIC50 (Eubacterium limosum): 0.5 µg/mL
- MIC90 (Eubacterium limosum): 1 µg/mL
- MIC50 (Clostridioides difficile): 2 µg/mL
- MIC90 (Clostridioides difficile): 4 µg/mL
- MIC50 (Clostridium perfringens [18]): ≤ 0.015 µg/mL
- MIC90 (Clostridium perfringens [18]): 0.03 µg/mL
- MIC [19]: 0.5 µg/mL
- MIC (Clostridium perfringens [20]): ≤ 0.015 µg/mL
- MIC (Clostridium septicum): 0.06 µg/mL
- MIC (Cutibacterium acnes): 2 µg/mL
- MIC [21]: 1 µg/mL
- MIC [22]: 0.25 µg/mL
- MIC (Lacticaseibacillus casei): 2 µg/mL
- MIC (Bacteroides fragilis [23]): 0.25 µg/mL
- MIC (Bacteroides fragilis [24]): 0.25 µg/mL
- MIC (Bacteroides fragilis [25]): 2 µg/mL

SMILES: C[C@@H](O)[C@H]1C(=O)N2C(C(=O)O)=C(S[C@H]3C[C@@H](C(=O)N4CC[C@H](NC(=O)CNC(=N)N)C4)N(C)C3)[C@H](C)[C@H]12 [TOMOPENEM]
- MIC (Bacteroides fragilis [1]): > 128 µg/mL
- MIC [2]: 0.25 µg/mL
- MIC [3]: 0.03 µg/mL
- MIC (Prevotella corporis): 0.06 µg/mL
- MIC [4]: 0.125 µg/mL
- MIC (Prevotella intermedia): 0.06 µg/mL
- MIC [5]: 0.125 µg/mL
- MIC (Prevotella denticola): 0.06 µg/mL
- MIC (Hoylesella oralis): 0.06 µg/mL
- MIC (Fusobacterium nucleatum [6]): 2 µg/mL
- MIC (Fusobacterium varium [7]): 0.5 µg/mL
- MIC (Bilophila wadsworthia): 0.125 µg/mL
- MIC [8]: 0.25 µg/mL
- MIC [9]: 0.03 µg/mL
- MIC50 (Bacteroides fragilis [10]): 0.25 µg/mL
- MIC90 (Bacteroides fragilis [10]): 1 µg/mL
- MIC50 [11]: 0.5 µg/mL
- MIC90 [11]: 2 µg/mL
- MIC50 [12]: 0.5 µg/mL
- MIC90 [12]: 4 µg/mL
- MIC50 (Bacteroides uniformis): 0.5 µg/mL
- MIC90 (Bacteroides uniformis): 4 µg/mL
- MIC50 (Phocaeicola vulgatus): 0.5 µg/mL
- MIC90 (Phocaeicola vulgatus): 4 µg/mL
- MIC50 (Bacteroides stercoris): 0.5 µg/mL
- MIC90 (Bacteroides stercoris): 4 µg/mL
- MIC50 (Odoribacter splanchnicus): 0.5 µg/mL
- MIC90 (Odoribacter splanchnicus): 4 µg/mL
- MIC50 (Prevotella sp.): 0.125 µg/mL
- MIC90 (Prevotella sp.): 0.5 µg/mL
- MIC50 [13]: 0.125 µg/mL
- MIC90 [13]: 0.5 µg/mL
- MIC50 (Fusobacterium nucleatum [14]): ≤ 0.015 µg/mL
- MIC90 (Fusobacterium nucleatum [14]): 0.5 µg/mL
- MIC50 (Fusobacterium varium [15]): ≤ 0.015 µg/mL
- MIC90 (Fusobacterium varium [15]): 0.5 µg/mL
- MIC50 (Fusobacterium mortiferum): ≤ 0.015 µg/mL
- MIC90 (Fusobacterium mortiferum): 0.5 µg/mL
- MIC50 (Fusobacterium sp.): ≤ 0.015 µg/mL
- MIC90 (Fusobacterium sp.): 0.5 µg/mL
- MIC50 (Finegoldia magna): 0.06 µg/mL
- MIC90 (Finegoldia magna): 0.125 µg/mL
- MIC50 (Parvimonas micra): 0.125 µg/mL
- MIC90 (Parvimonas micra): 0.125 µg/mL
- MIC50 [16]: 0.5 µg/mL
- MIC90 [16]: 4 µg/mL
- MIC50 [17]: ≤ 0.015 µg/mL
- MIC90 [17]: 0.06 µg/mL
- MIC50 (Eggerthella lenta): 0.5 µg/mL
- MIC90 (Eggerthella lenta): 0.5 µg/mL
- MIC50 (Eubacterium limosum): 0.5 µg/mL
- MIC90 (Eubacterium limosum): 0.5 µg/mL
- MIC50 (Clostridioides difficile): 1 µg/mL
- MIC90 (Clostridioides difficile): 2 µg/mL
- MIC50 (Clostridium perfringens [18]): ≤ 0.015 µg/mL
- MIC90 (Clostridium perfringens [18]): 0.06 µg/mL
- MIC [19]: 0.5 µg/mL
- MIC (Clostridium perfringens [20]): 0.03 µg/mL
- MIC (Clostridium septicum): 0.03 µg/mL
- MIC (Cutibacterium acnes): 1 µg/mL
- MIC [21]: 0.5 µg/mL
- MIC [22]: 0.25 µg/mL
- MIC (Lacticaseibacillus casei): 1 µg/mL
- MIC (Bacteroides fragilis [23]): 0.25 µg/mL
- MIC (Bacteroides fragilis [24]): 0.125 µg/mL
- MIC (Bacteroides fragilis [25]): 4 µg/mL
